These results are taken from patent US20260159525A1, “TRICYCLIC HETEROCYCLES” (Merck Patent GmbH, priority 2021, published 2026).

Common to all, as to assay type: cell-based
Assay [1] relates to YAP-TEAD interaction. Nature of the assay: SK-HEP-1 reporter assay (8x TEAD responsive elements driving NanoLuc luciferase). The settings on record: Homo sapiens, SK-HEP1, SK-HEP-1 cells, 24 hour incubation. The gist of the method:
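SK-HEP-1 cells carrying a stably integrated 8× TEAD-element NanoLuc reporter, seeded 24 h before dosing, were treated in duplicate with a 10-point dose series (top 30 μM final, 0.3% DMSO) for 24 h at 37°C, 5% CO2. Luciferase activity read by NanoGlo luminescence; IC50 derived from it.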
In general terms: Reporter assays use an easily measured gene product as a stand-in for the process of interest.

Assay [2] deals with NCI-H226 cells. Nature of the assay: Viability assay in NCI-H226 (Yap-dependent) cells, CyQUANT. The settings on record: Homo sapiens, NCI-H226 YAP dependent cell line, 96 hour incubation, group symbols. The gist of the method:
(§1)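 Cells were seeded 24 h before dosing, then given a 10-point, 1:3 compound series from 30 μM final (0.3% DMSO) in duplicate. After 96 h at 37 °C, viability was read by CyQUANT DNA-dye fluorescence.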

Assay [3] has as its system SW620 Yap KO cells. Nature of the assay: Viability assay in SW620 Yap KO (Yap independent) cells, CyQUANT. As to conditions: Homo sapiens, SW-620, SW620 YAP and TAZ knocked out (YAP independent), 96 hour incubation, n.d. (x) = not detectable below threshold x. The gist of the method: as §1
Setting [4] is: number, or n.d. (x) = not detectable below threshold x.

In general, IC50 refers to the midpoint of a concentration-inhibition curve. A lower IC50 goes with greater potency.

As to `Cn1cc2c3cc(C(=O)NCCN4CCOCC4)sc3n(-c3ccc(C(F)(F)F)cc3)c2n1` [Compound 65, 4-methyl-N-[2-(morpholin-4-yl)ethyl]-7-[4-(trifluoromethyl)phenyl]-9-thia-4,5,7-triazatricyclo[6.3.0.0^2,6]undeca-1(8),2,5,10-tetraene-10-carboxamide], the IC50 in assay [1] (setting [4]) was more than 300 nM; in assay [2] it was 100 to 1000 nM; in assay [3] it was more than 3000 nM.

With `Cn1cc2c3cc(C(=O)NCc4ccccn4)sc3n(-c3ccc(C(F)(F)F)cc3)c2n1` [Compound 66, 4-methyl-N-[(pyridin-2-yl)methyl]-7-[4-(trifluoromethyl)phenyl]-9-thia-4,5,7-triazatricyclo[6.3.0.0^2,6]undeca-1(8),2,5,10-tetraene-10-carboxamide], the IC50 is more than 9500 nM in assay [1] (setting [4]), 1 to 100 nM in assay [2] and more than 3000 nM in assay [3].

For `Cn1cc2c3cc(C(=O)N4CC[C@@H](O)C4)sc3n(-c3ccc(C(F)(F)F)cc3)c2n1` [Compound 67, (3R)-1-{4-methyl-7-[4-(trifluoromethyl)phenyl]-9-thia-4,5,7-triazatricyclo[6.3.0.0^2,6]undeca-1(8),2,5,10-tetraene-10-carbonyl}pyrrolidin-3-ol], the IC50 in assay [1] (setting [4]) is more than 9500 nM; in assay [2], 100 to 1000 nM; in assay [3], more than 3000 nM.

Take `C[C@@H](CO)NC(=O)c1cc2c3cn(C)nc3n(-c3ccc(C(F)(F)F)cc3)c2s1` [Compound 68, N-[(2S)-1-hydroxypropan-2-yl]-4-methyl-7-[4-(trifluoromethyl)phenyl]-9-thia-4,5,7-triazatricyclo[6.3.0.0^2,6]undeca-1(8),2,5,10-tetraene-10-carboxamide]: the IC50 in assay [1] (setting [4]) was more than 950 nM; in assay [2] it was 1 to 100 nM; in assay [3] it was more than 3000 nM.

Turning to `Cn1cc2c3cc(C(=O)N4CC[C@H](O)C4)sc3n(-c3ccc(C(F)(F)F)cc3)c2n1` [Compound 69, (3S)-1-{4-methyl-7-[4-(trifluoromethyl)phenyl]-9-thia-4,5,7-triazatricyclo[6.3.0.0^2,6]undeca-1(8),2,5,10-tetraene-10-carbonyl}pyrrolidin-3-ol], the IC50 was more than 30000 nM in assay [1] (setting [4]), 1 to 100 nM in assay [2] and more than 3200 nM in assay [3].

Turning to `Cn1cc2c3cc(-c4noc(=O)[nH]4)sc3n(-c3ccc(C(F)(F)F)cc3)c2n1` [Compound 80, 3-{4-methyl-7-[4-(trifluoromethyl)phenyl]-9-thia-4,5,7-triazatricyclo[6.3.0.0^2,6]undeca-1(8),2,5,10-tetraen-10-yl}-4,5-dihydro-1,2,4-oxadiazol-5-one], the IC50 was more than 30000 nM in assay [1] (setting [4]), 100 to 1000 nM in assay [2] and more than 30000 nM in assay [3].

As for `Cn1cc2c3cc(C(=O)NC4(CO)CC4)sc3n(-c3ccc(C(F)(F)F)cc3)c2n1` [Compound 91, N-[1-(hydroxymethyl)cyclopropyl]-4-methyl-7-[4-(trifluoromethyl)phenyl]-9-thia-4,5,7-triazatricyclo[6.3.0.0^2,6]undeca-1(8),2,5,10-tetraene-10-carboxamide], the IC50 in assay [1] (setting [4]) was more than 30000 nM; in assay [2], 1 to 100 nM; in assay [3], more than 30000 nM.

Consider `CC[C@@H](CO)NC(=O)c1cc2c3cn(C)nc3n(-c3ccc(C(F)(F)F)cc3)c2s1` [Compound 92, N-[(2S)-1-hydroxybutan-2-yl]-4-methyl-7-[4-(trifluoromethyl)phenyl]-9-thia-4,5,7-triazatricyclo[6.3.0.0^2,6]undeca-1(8),2,5,10-tetraene-10-carboxamide], for which the IC50 is more than 30000 nM in assay [1] (setting [4]), 100 to 1000 nM in assay [2] and more than 3000 nM in assay [3].

Turning to `CC[C@H](CO)NC(=O)c1cc2c3cn(C)nc3n(-c3ccc(C(F)(F)F)cc3)c2s1` [Compound 93, N-[(2R)-1-hydroxybutan-2-yl]-4-methyl-7-[4-(trifluoromethyl)phenyl]-9-thia-4,5,7-triazatricyclo[6.3.0.0^2,6]undeca-1(8),2,5,10-tetraene-10-carboxamide], the IC50 in assay [1] (group symbols) is 10 to 100 nM; in assay [2] it was 1 to 100 nM; in assay [3] it was more than 3000 nM.

Regarding `Cn1nc2c3cc(C(=O)O)sc3n(-c3ccc(C(F)(F)F)cc3)c2n1` [Compound 95, 4-methyl-7-[4-(trifluoromethyl)phenyl]-9-thia-3,4,5,7-tetraazatricyclo[6.3.0.0^2,6]undeca-1(8),2,5,10-tetraene-10-carboxylic acid], the IC50 is 1 to 10 nM in assay [1] (group symbols), 1 to 100 nM in assay [2] and more than 30000 nM in assay [3].

With `Cn1ccc(C(CO)NC(=O)c2cc3c4cn(C)nc4n(-c4ccc(C(F)(F)F)cc4)c3s2)n1` (stereo not drawn) [Compound 96, N-[2-hydroxy-1-(1-methyl-1H-pyrazol-3-yl)ethyl]-4-methyl-7-[4-(trifluoromethyl)phenyl]-9-thia-4,5,7-triazatricyclo[6.3.0.0^2,6]undeca-1(8),2,5,10-tetraene-10-carboxamide], the IC50 in assay [1] (group symbols) was 10 to 100 nM; in assay [2], 1 to 100 nM; in assay [3], more than 30000 nM.

In the case of `Cn1cc2c3cc(C(=O)NCC(O)CO)sc3n(-c3ccc(C(F)(F)F)cc3)c2n1` (stereo not drawn) [Compound 97, N-(2,3-dihydroxypropyl)-4-methyl-7-[4-(trifluoromethyl)phenyl]-9-thia-4,5,7-triazatricyclo[6.3.0.0^2,6]undeca-1(8),2,5,10-tetraene-10-carboxamide], the IC50 was 1 to 10 nM in assay [1] (group symbols), 100 to 1000 nM in assay [2] and more than 30000 nM in assay [3].

For the compound `Cn1cc2c3cc(C(=O)O)sc3n(-c3ccc(C(F)F)cc3)c2n1` [Compound 99, 7-[4-(difluoromethyl)phenyl]-4-methyl-9-thia-4,5,7-triazatricyclo[6.3.0.0^2,6]undeca-1(8),2,5,10-tetraene-10-carboxylic acid], the half-maximal inhibitory concentration (IC50) in assay [1] (group symbols) is 100 to 10000 nM; in assay [2], 100 to 1000 nM; in assay [3] it was more than 30000 nM.

As for `CNC(=O)c1cc2c3cn(C)nc3n(-c3ccc(C(F)F)cc3)c2s1` [Compound 100, 7-[4-(difluoromethyl)phenyl]-N,4-dimethyl-9-thia-4,5,7-triazatricyclo[6.3.0.0^2,6]undeca-1(8),2,5,10-tetraene-10-carboxamide], the values for the IC50 in assay [1] (group symbols), in assay [2] and in assay [3] were 10 to 100 nM, 1 to 100 nM and more than 30000 nM, respectively.

With `CNC(=O)c1cc2c3nn(C)nc3n(-c3ccc(C(F)(F)F)cc3)c2s1` [Compound 102, N,4-dimethyl-7-[4-(trifluoromethyl)phenyl]-9-thia-3,4,5,7-tetraazatricyclo[6.3.0.0^2,6]undeca-1(8),2,5,10-tetraene-10-carboxamide], the IC50 in assay [1] (group symbols) was 10 to 100 nM; in assay [2], 1 to 100 nM; in assay [3] it was more than 30000 nM.

For `Cn1cc2c3cc(C(=O)N4CC[C@H](O)C4)sc3n(-c3ccc(C(F)F)cc3)c2n1` [Compound 105, (3S)-1-{7-[4-(difluoromethyl)phenyl]-4-methyl-9-thia-4,5,7-triazatricyclo[6.3.0.0^2,6]undeca-1(8),2,5,10-tetraene-10-carbonyl}pyrrolidin-3-ol], the IC50 in assay [1] (group symbols) is 10 to 100 nM; in assay [2], 100 to 1000 nM; in assay [3] it was more than 30000 nM.

Regarding `Cn1cc2c3cc(C(=O)O)sc3n(-c3ccc(C(F)F)cn3)c2n1` [Compound 117, 7-[5-(difluoromethyl)pyridin-2-yl]-4-methyl-9-thia-4,5,7-triazatricyclo[6.3.0.0^2,6]undeca-1(8),2,5,10-tetraene-10-carboxylic acid], the IC50 is 100 to 10000 nM in assay [1] (group symbols), 1000 to 10000 nM in assay [2] and more than 30000 nM in assay [3].

Regarding `Cn1cc2c3cc(C(=O)O)sc3n(-c3ccc(OC(F)(F)F)cn3)c2n1` [Compound 118, 4-methyl-7-[5-(trifluoromethoxy)pyridin-2-yl]-9-thia-4,5,7-triazatricyclo[6.3.0.0^2,6]undeca-1(8),2,5,10-tetraene-10-carboxylic acid], the IC50 is 10 to 100 nM in assay [1] (group symbols), 100 to 1000 nM in assay [2] and more than 30000 nM in assay [3].

In the case of `CNC(=O)c1cc2c3cn(C)nc3n(-c3ccc(C(F)F)cn3)c2s1` [Compound 119, 7-[5-(difluoromethyl)pyridin-2-yl]-N,4-dimethyl-9-thia-4,5,7-triazatricyclo[6.3.0.0^2,6]undeca-1(8),2,5,10-tetraene-10-carboxamide], the IC50 in assay [1] (setting [4]) was more than 30000 nM; in assay [2] it was 100 to 1000 nM; in assay [3] it was more than 30000 nM.

On to `Cn1cc2c3cc(C(=O)N[C@@H](CO)c4ccccn4)sc3n(-c3ccc(C(F)F)cn3)c2n1` [Compound 120, 7-[5-(difluoromethyl)pyridin-2-yl]-N-[(1R)-2-hydroxy-1-(pyridin-2-yl)ethyl]-4-methyl-9-thia-4,5,7-triazatricyclo[6.3.0.0^2,6]undeca-1(8),2,5,10-tetraene-10-carboxamide], for which the figures for the IC50 in assay [1] (setting [4]), in assay [2] and in assay [3] were more than 300 nM, 100 to 1000 nM and more than 30000 nM, respectively.

For `CNC(=O)c1cc2c3cn(C)nc3n(-c3ccc(OC(F)F)cn3)c2s1` [Compound 121, 7-[5-(difluoromethoxy)pyridin-2-yl]-N,4-dimethyl-9-thia-4,5,7-triazatricyclo[6.3.0.0^2,6]undeca-1(8),2,5,10-tetraene-10-carboxamide], the 50% inhibitory concentration (IC50) in assay [1] (setting [4]) is more than 30000 nM; in assay [2], 1 to 100 nM; in assay [3], more than 30000 nM.
